Experimental data from patent US9662360B2, “Treatment of herpes, pseudomonas, staph, and hepatitis” (priority 2008, dated 2017).
Where “and” joins values, the source holds several entries; their conditions need not be identical. Identical values can stand only once.

Experiments:
[1] = test system: HIV-1 clinical isolate ADA in fresh human monocyte-macrophages; assay: Anti-HIV monocyte-macrophage assay (p24 ELISA); assay type: cell-based; conditions: for P-24 Activity: vs. ADA
Procedure: ELISA kits were purchased from Coulter. The assay is performed according to the manufacturer's recommendations. Prior to ELISA analysis, the reverse transcriptase activity assays were routinely performed and the values were used for incorporated radioactivity in the RT activity assay to determine the dilution of samples required for the ELISA. Control curves were generated in each assay to accurately quantititate the amount of capsid protein in each sample. Data was obtained by spectrophotometric analysis at 450 nm using a Molecular Devices Vmax plate reader. P24 concentrations were calculated from the optical density values by use of the Molecular Devices software package Soft Max.
For isolation of a adherent cells, 3×10^6 non-PHA stimulated peripheral blood cells were resuspended in Hanks buffered saline with calcium and magnesium supplemented with 10% human AB serum. The cells were placed in a 24-well microtiter plate at 37° C. for 2 hours. Non-adherent cells were removed by vigorously washing six times. The adherent cells were cultured for 7 days in RPM1 1640 tissue culture medium with 15% fetal bovine serum. The cultures were carefully monitored for confluency during this incubation period. Infection of the cells was performed with the monocytotropic HIV-1 strains BaL or ADA and the matched pair of AZT-sensitive and AZT-resistant virus isolates. Each of these virus isolates was obtained from the NLAID AIDS Research and Reference Reagent Program. High titer pools of each of these viruses have been harvested from infected cultures of peripheral blood adherent cells and frozen in 1.0 ml aliquots at −80° C. Monocyte-macrophage monolayers were infected at an MOI of 0.1. […] Compounds to be evaluated in the monocyte-macrophage assay were added to the monolayers shortly before infection in order to maximize the potential for identifying active compounds.
At two days post-infection, the medium was decanted and the cultures washed twice with complete medium in order to remove excess virus. Fresh medium alone or medium containing the appropriate concentration of drugs was added and incubation continued for an additional 5 days. XTT-tetrazolium or trypan blue exclusion assays for cell viability and HIV p24 ELISA assays for production of p24 core antigen were performed on Day 7 post-infection. ELISA kits were purchased from Coulter. Control curves were generated in each assay to accurately quantitate the amount of capsid protein in each sample. Data was obtained by spectrophotometric analysis at 450 nm using a Molecular Devices Vmax plate reader. P24 concentrations were calculated from the optical density values by use of the Molecular Device software package Soft Max.

[2] = test system: clinical HIV isolate ROJO in fresh human PBMCs; assay: PBMC/ROJO reverse transcriptase activity assay; assay type: cell-based; conditions: qualitative; PHA blastogenesis
Procedure: A microtiter based reverse transcriptase (RT) reaction was utilized. Tritiated thymidine triphosphate (NEN) (TTP) was resuspended in distilled H2O at 5 Ci/ml. Poly rA and oligo dT were prepared as a stock solution which was kept at −20° C. The RT reaction buffer was prepared fresh on a daily basis and consists of 125 μl MEGTA, 125 μl dH2O, 125 μl Triton X-100, 50 μl 1M Tris (pH 7.4), 50 μl MDTT, and 40 μl MMgCl2. These three solutions were mixed together in a ratio of 1 parts TTP, 2.5 parts poly rA:oligo dT, 2.5 parts reaction, the reaction buffer and 4 parts distilled water. Ten microliters of this reaction mixture was placed in a round bottom microtiter plate and 15 μl of virus containing supernatant was added and mixed. The plate was incubated at 37° C. and incubated for 60 minutes. […] Incorporated radioactivity was quantitated utilizing a Wallac Microbeta scintillation counter. […]
In the standard PBL assay (MOI: 0.2), the assay was ended on day 7 following collection of cell free supernatant samples for reverse transcriptase activity assay. In the low MOI PBL assay (MOI: 0.02), supernatant samples were collected on day 6, day 11, and day 14 post-infection and analyzed for […]. […]

Q: Which results are given for `Cc1cn([C@H]2C[C@H](N=[N+]=[N-])[C@@H](CO)O2)c(=O)[nH]c1=O` [AZT, zidovudine]?
A: activity in monocyte-macrophages infected with ADA ([1]; qualitative): expected level of activity; P-24 Activity ([1]; 0.0004 μM): 1005.00 pg/mL and 1252.00 pg/mL and 954.10 pg/mL and 1097.00 pg/mL and 1160.00 pg/mL and 1098.00 pg/mL; P-24 Activity ([1]; 0.0014 μM): 919.00 pg/mL and 1150.00 pg/mL and 678.70 pg/mL and 821.90 pg/mL and 594.80 pg/mL and 983.10 pg/mL; P-24 Activity ([1]; 0.004 μM): 470.80 pg/mL and 660.90 pg/mL and 912.30 pg/mL and 914.90 pg/mL and 891.20 pg/mL and 499.20 pg/mL; inhibition of replication of isolate ROJO in fresh human PBMCs [2]: expected level of activity
